According to US8883782B2, “Spiro-tetracyclic ring compounds as beta-secretase modulators and methods of use” (Amgen Inc., priority 2010, dated 2014):
Like-named read-outs stand apart in the source and are kept apart here.

What was measured:
[1] = tested on: Aβ40 in conditioned medium of cells stably expressing Amyloid Precursor Protein (APP); assay: In vitro BACE cell-based assay (Aβ40 in conditioned medium, sandwich ELISA); settings: read-out: HEK cell assay
Procedure, shortened: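 Step two: 10-point compound titration added, starting 100 μM or 10 μM, 0.1% DMSO. Step three: medium Aβ40 measured by ELISA, capture 3 h and detection 2 h at 4° C, TRF read.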

[2] = target: Beta Secretase enzyme (BACE) (Homo sapiens, UniProt P56817); assay: In vitro enzymatic BACE FRET (fluorescence resonance energy transfer) assay; type: biochemical; settings: average IC50, enzyme assay; read-out: BACE 1 FRET assay
Procedure, shortened: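 Fluorescence read after Tris quench to neutral pH. Reaction: 50 nM fluorophore/quencher peptide substrate, 1 h, in 0.05 M acetate pH 4.2, 10% DMSO final, 100 uM genapol.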

[3] = Homo sapiens, HEK293, average IC50

Chain of Beta Secretase enzyme (BACE) (P56817 46-501, species assumed): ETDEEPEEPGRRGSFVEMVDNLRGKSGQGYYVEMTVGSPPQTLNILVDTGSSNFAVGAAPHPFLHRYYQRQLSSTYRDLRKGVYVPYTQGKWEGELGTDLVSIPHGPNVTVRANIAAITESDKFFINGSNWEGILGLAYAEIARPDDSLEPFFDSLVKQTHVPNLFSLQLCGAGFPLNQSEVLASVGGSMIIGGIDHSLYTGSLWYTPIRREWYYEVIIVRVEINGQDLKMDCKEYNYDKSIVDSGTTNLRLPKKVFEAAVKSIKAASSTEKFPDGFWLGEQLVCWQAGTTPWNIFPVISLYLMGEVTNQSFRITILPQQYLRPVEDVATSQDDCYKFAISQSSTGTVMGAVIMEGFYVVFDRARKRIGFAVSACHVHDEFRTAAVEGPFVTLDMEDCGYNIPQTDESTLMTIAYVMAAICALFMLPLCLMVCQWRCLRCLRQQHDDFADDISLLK

Row | Compound | IC50 [1, 3] | IC50 [2] | IC50 [1]
1 | NC1=N[C@]2(CO1)c1cc(N3CC[C@@H](F)C3)cc(F)c1Oc1ccc(-c3cccnc3F)c(F)c12 [Example 1053, (4R)-1′,5′-difluoro-2′-(2-fluoro-3-pyridinyl)-7′-((3R)-3-fluoro-1-pyrrolidinyl)spiro[1,3-oxazole-4,9′-xanthen]-2-amine] | 79 nM | 10.3 nM | 
2 | NC1=N[C@@]2(CO1)c1cc(-c3cccnc3F)ccc1Oc1c(F)cc(N3CC4CC4C3)cc12 (stereo partly drawn) [Example 1054, (4S)-2′-(3-azabicyclo[3.1.0]hex-3-yl)-4′-fluoro-7′-(2-fluoro-3-pyridinyl)spiro[1,3-oxazole-4,9′-xanthen]-2-amine] | 62 nM | 0.6 nM | 
3 | NC1=N[C@@]2(CO1)c1cc(-c3cnccc3F)ccc1Oc1c(F)cc(C3CCOCC3)cc12 [Example 1056, (4S)-4′-fluoro-7′-(4-fluoro-3-pyridinyl)-2′-(tetrahydro-2H-pyran-4-yl)spiro[1,3-oxazole-4,9′-xanthen]-2-amine] | 17 nM | 3 nM | 
4 | Cc1cccc(Oc2ccc3c(c2)[C@@]2(COC(N)=N2)c2cc(N4CCOCC4)cc(F)c2O3)n1 [Example 1057, (4S)-4′-fluoro-7′-((6-methyl-2-pyridinyl)oxy)-2′-(4-morpholinyl)spiro[1,3-oxazole-4,9′-xanthen]-2-amine] | 687 nM | 73.2 nM | 
5 | Cc1ccc(Oc2ccc3c(c2)[C@@]2(COC(N)=N2)c2cc(N4CCOCC4)cc(F)c2O3)nc1 [Example 1058, (4S)-4′-fluoro-7′-((5-methyl-2-pyridinyl)oxy)-2′-(4-morpholinyl)spiro[1,3-oxazole-4,9′-xanthen]-2-amine] | 604 nM | 50.7 nM | 
6 | Cc1ccnc(Oc2ccc3c(c2)[C@@]2(COC(N)=N2)c2cc(N4CCOCC4)cc(F)c2O3)c1 [Example 1059, (4S)-4′-fluoro-7′-((4-methyl-2-pyridinyl)oxy)-2′-(4-morpholinyl)spiro[1,3-oxazole-4,9′-xanthen]-2-amine] | 609 nM | 33.9 nM | 
7 | NC1=N[C@@]2(CO1)c1cc(Oc3cccc(Cl)n3)ccc1Oc1c(F)cc(N3CCOCC3)cc12 [Example 1060, (4S)-7′-((6-chloro-2-pyridinyl)oxy)-4′-fluoro-2′-(4-morpholinyl)spiro[1,3-oxazole-4,9′-xanthen]-2-amine] | 318 nM | 33.5 nM | 
8 | NC1=N[C@@]2(CO1)c1cc(Oc3ccc(Cl)cn3)ccc1Oc1c(F)cc(N3CCOCC3)cc12 [Example 1061, (4S)-7′-((5-chloro-2-pyridinyl)oxy)-4′-fluoro-2′-(4-morpholinyl)spiro[1,3-oxazole-4,9′-xanthen]-2-amine] | 538 nM | 57.4 nM | 
9 | NC1=N[C@@]2(CO1)c1cc(Oc3cc(Cl)ccn3)ccc1Oc1c(F)cc(N3CCOCC3)cc12 [Example 1062, (4S)-7′-((4-chloro-2-pyridinyl)oxy)-4′-fluoro-2′-(4-morpholinyl)spiro[1,3-oxazole-4,9′-xanthen]-2-amine] | 374 nM | 22.3 nM | 
10 | Cc1cccc(Oc2ccc3c(c2)[C@@]2(COC(N)=N2)c2cc(C4=CCOCC4)cc(F)c2O3)n1 [Example 1063, (4S)-2′-(3,6-dihydro-2H-pyran-4-yl)-4′-fluoro-7′-((6-methyl-2-pyridinyl)oxy)spiro[1,3-oxazole-4,9′-xanthen]-2-amine] | 751 nM | 33.7 nM | 
11 | Cc1ccc(Oc2ccc3c(c2)[C@@]2(COC(N)=N2)c2cc(C4=CCOCC4)cc(F)c2O3)nc1 [Example 1064, (4S)-2′-(3,6-dihydro-2H-pyran-4-yl)-4′-fluoro-7′-((5-methyl-2-pyridinyl)oxy)spiro[1,3-oxazole-4,9′-xanthen]-2-amine] | 442 nM | 21.1 nM | 
12 | Cc1ccnc(Oc2ccc3c(c2)[C@@]2(COC(N)=N2)c2cc(C4=CCOCC4)cc(F)c2O3)c1 [Example 1065, (4S)-2′-(3,6-dihydro-2H-pyran-4-yl)-4′-fluoro-7′-((4-methyl-2-pyridinyl)oxy)spiro[1,3-oxazole-4,9′-xanthen]-2-amine] | 1480 nM | 37.7 nM | 
13 | NC1=N[C@@]2(CO1)c1cc(Oc3ccc(Cl)cn3)ccc1Oc1c(F)cc(C3=CCOCC3)cc12 [Example 1066, (4S)-7′-((5-chloro-2-pyridinyl)oxy)-2′-(3,6-dihydro-2H-pyran-4-yl)-4′-fluorospiro[1,3-oxazole-4,9′-xanthen]-2-amine] | 1970 nM | 52.6 nM | 
14 | NC1=N[C@@]2(CS1)c1cc(-c3cccnc3F)ccc1Oc1c(F)cc(-c3ccncc3)cc12 [Example 1068, (4S)-4′-fluoro-7′-(2-fluoro-3-pyridinyl)-2′-(4-pyridinyl)spiro[1,3-thiazole-4,9′-xanthen]-2-amine] | 62 nM | 2.3 nM | 
15 | NC1=N[C@@]2(CS1)c1cc(-c3cccnc3F)ccc1Oc1c(F)cc(N3CCOCC3)cc12 [Example 1069, (4S)-4′-fluoro-7′-(2-fluoro-3-pyridinyl)-2′-(4-morpholinyl)spiro[1,3-thiazole-4,9′-xanthen]-2-amine] | 10 nM | 0.6 nM | 
16 | COc1cc(F)c2c(c1)[C@]1(COC(N)=N1)c1cc(-c3cncc(C(C)(F)F)c3)ccc1O2 [Example 1070, (4S)-7′-(5-(1,1-difluoroethyl)-3-pyridinyl)-4′-fluoro-2′-methoxyspiro[1,3-oxazole-4,9′-xanthen]-2-amine] | 367 nM | 345 nM | 
17 | NC1=N[C@@]2(CS1)c1cc(-c3cccnc3F)ccc1Oc1c(F)cc(-c3ccnc(F)c3)cc12 [Example 1071, (4S)-4′-fluoro-7′-(2-fluoro-3-pyridinyl)-2′-(2-fluoro-4-pyridinyl)spiro[1,3-thiazole-4,9′-xanthen]-2-amine] | 44 nM | 0.3 nM | 
18 | Cc1cc(-c2cc(F)c3c(c2)[C@]2(CSC(N)=N2)c2cc(-c4cccnc4F)ccc2O3)ccn1 [Example 1072, (4S)-4′-fluoro-7′-(2-fluoro-3-pyridinyl)-2′-(2-methyl-4-pyridinyl)spiro[1,3-thiazole-4,9′-xanthen]-2-amine] | 29 nM | 3.3 nM | 
19 | COc1cc(F)c2c(c1)[C@]1(COC(N)=N1)c1cc(-c3cncc(C(F)(F)F)c3)ccc1O2 [Example 1073, (4S)-4′-fluoro-2′-methoxy-7′-(5-(trifluoromethyl)-3-pyridinyl)spiro[1,3-oxazole-4,9′-xanthen]-2-amine] | 194 nM | 61.4 nM | 
20 | COc1cc(F)c2c(c1)[C@]1(COC(N)=N1)c1cc(-c3cncc(CC#N)c3)ccc1O2 [Example 1074, (5-((4S)-2-amino-5′-fluoro-7′-methoxyspiro[1,3-oxazole-4,9′-xanthen]-2′-yl)-3-pyridinyl)acetonitrile] | 324 nM | 131 nM | 
21 | NC1=N[C@@]2(CS1)c1cc(-c3cccnc3F)ccc1Oc1c(F)cc(N3CC[C@@H](F)C3)cc12 [Example 1075, (4S)-4′-fluoro-7′-(2-fluoro-3-pyridinyl)-2′-((3R)-3-fluoro-1-pyrrolidinyl)spiro[1,3-thiazole-4,9′-xanthen]-2-amine] | 15 nM | 1.5 nM | 
22 | NC1=N[C@@]2(CS1)c1cc(-c3cccnc3F)ccc1Oc1c(F)cc(N3CC4CC3CO4)cc12 (stereo partly drawn) [Example 1078, (4S)-4′-fluoro-7′-(2-fluoro-3-pyridinyl)-2′-(2-oxa-5-azabicyclo[2.2.1]hept-5-yl)spiro[1,3-thiazole-4,9′-xanthen]-2-amine] | 5 nM | 0.4 nM | 
23 | CC(C)(CF)COc1cc(F)c2c(c1)[C@]1(CSC(N)=N1)c1cc(-c3cccnc3F)ccc1O2 [Example 1081, (4S)-4′-fluoro-2′-(3-fluoro-2,2-dimethylpropoxy)-7′-(2-fluoro-3-pyridinyl)spiro[1,3-thiazole-4,9′-xanthen]-2-amine] | 899 nM | 214 nM | 
24 | C[C@H]1COCCN1c1cc(F)c2c(c1)[C@]1(CSC(N)=N1)c1cc(-c3cccnc3F)ccc1O2 [Example 1082, (4S)-4′-fluoro-7′-(2-fluoro-3-pyridinyl)-2′-((3S)-3-methyl-4-morpholinyl)spiro[1,3-thiazole-4,9′-xanthen]-2-amine] | 4 nM | 0.3 nM | 
25 | NC1=N[C@@]2(CS1)c1cc(-c3cccnc3F)ccc1Oc1c(F)cc(N3C[C@H]4C[C@@H]3CO4)cc12 [Example 1085, (4S)-4′-fluoro-7′-(2-fluoro-3-pyridinyl)-2′-((1R,4R)-2-oxa-5-azabicyclo[2.2.1]hept-5-yl)spiro[1,3-thiazole-4,9′-xanthen]-2-amine] | 23 nM | 0.3 nM | 
26 | Cc1ccc(-c2cc(F)c3c(c2)[C@]2(CSC(N)=N2)c2cc(-c4cccnc4F)ccc2O3)cn1 [Example 1086, (4S)-4′-fluoro-7′-(2-fluoro-3-pyridinyl)-2′-(6-methyl-3-pyridinyl)spiro[1,3-thiazole-4,9′-xanthen]-2-amine] | 1370 nM | 67 nM | 
27 | NC1=N[C@@]2(CO1)c1cc(-c3cccnc3F)ccc1Oc1c(F)cc(N3CC4(COC4)C3)cc12 [Example 1087, (4S)-4′-fluoro-7′-(2-fluoro-3-pyridinyl)-2′-(2-oxa-6-azaspiro[3.3]hept-6-yl)spiro[1,3-oxazole-4,9′-xanthen]-2-amine] | 2 nM | 2 nM | 
28 | COCC1SC(N)=N[C@@]12c1cc(-c3cccnc3F)ccc1Oc1cnc(Cl)cc12 (stereo partly drawn) [Example 1088, (5R)-3-chloro-7-(2-fluoro-3-pyridinyl)-5′-(methoxymethyl)spiro[chromeno[2,3-c]pyridine-5,4′-[1,3]thiazol]-2′-amine, (5S)-3-chloro-7-(2-fluoro-3-pyridinyl)-5′-(methoxymethyl)spiro[chromeno[2,3-c]pyridine-5,4′-[1,3]thiazol]-2′-amine] |  | 115 nM | 3060 nM
